In PubChem BioAssay AID179 (DTP/NCI, 2004):
Calls of active or inactive are those of the source.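 The calls were made as follows: active = compounds giving half or more protection of infected cells from virus-caused growth loss, again on retest; inactive = the rest.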

Tested on: CEM cells HIV-1 protection, formazan growth assay
Assay: NCI AIDS Antiviral Assay
Settings: for IC50: measured here: growth of uninfected CEM cells
How it was run: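 Five concentrations of each compound were applied to infected and uninfected human CEM cells. Protection from HIV-1 was judged from growth measured with a soluble formazan assay.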

SMILES	EC50 [µM]	IC50 [µM]	outcome
Cc1ccc(NC(=O)C(=O)C(C(=O)/C=C/c2ccccc2)C2OC(=O)c3ccccc32)c(C)c1 (stereo not given)	> 427	63.1	–
OCCCCCNc1ccnc2cc(Cl)ccc12	> 832	47.9	–
N/C(=N\C(O)C(Cl)(Cl)Cl)SCNC(=O)NCS/C(N)=N/C(O)C(Cl)(Cl)Cl (stereo not given)	> 158	126	–
O=C(Nc1ccccc1C(=O)Nc1nccs1)c1ccccc1	> 200	32.4	–
CSc1cc(=O)[nH]c(=O)[nH]1	> 200	> 200	–
O=C(NCCCCN1CCCCCC1)C1c2ccccc2-c2ccccc21	> 200	91.2	–
CCOc1ccc(/C=C(\Cl)c2ccc(OC)cc2)cc1	> 200	> 200	–
NC(N)=N/N=C\c1c(-c2ccccc2)nc2sccn12	> 200	12	–
O=c1c2cc(S(=O)(=O)Nc3c(Cl)cccc3Cl)ccc2ncn1NS(=O)(=O)c1ccc2ccccc2c1	> 200	37.2	–
CCOC(=O)/C(C#N)=C/c1ccc(SCc2ccco2)c([N+](=O)[O-])c1	> 200	> 200	–
O=C(Nc1cccc(C2=NCCN2)c1)Nc1cccc(C2=NCCN2)c1	> 200	32.4	–
COc1cc2c(cc1O)C(CSC)Cc1cc3c(cc1N(C)CC2)OCO3 (stereo not given)	> 148	12	–
Cn1c(=O)nc2n(CCO)ccnc-2c1=O	> 100	> 100	–
O=S(=O)(c1ccccc1)N1CC2CC(Br)C(Br)CC21 (stereo not given)	> 45.7	> 45.7	–
Cc1cccc(Nc2c3c(nc4ccccc24)CCCCC3)c1	–	–	inactive
CCON1CC(C(=O)OC)=C(O)C1=O	> 200	> 200	–
Cc1ccc(C(=O)Nc2ccc(CP(=O)(O)O)cc2CP(=O)(O)O)cc1NC(=O)c1cccc(NC(=O)Nc2cccc(C(=O)Nc3cc(C(=O)Nc4ccc(CP(=O)(O)O)cc4CP(=O)(O)O)ccc3C)c2)c1	> 100	> 100	–
Nc1ncnc2c1nnn2C1C=CC(COS(N)(=O)=O)C1 (stereo not given)	> 200	43.7	–
O=C(/C=C/c1ccco1)c1ccc(NCc2nc3ccccc3[nH]2)cc1	> 20.9	> 20.9	–
CN(CCSSCCN(C)/N=C/c1ccccc1)/N=C/c1ccccc1	> 200	> 200	–
CN(C)CCOc1cccc(OCCN(C)C)n1	> 200	> 200	–
NC(N)=NCCN1CCCCCc2ccccc21	> 200	20.9	–

SMILES	EC50 [µM]	IC50 [µM]	outcome
O=C1NC(c2ccco2)N2C(=O)NC(c3ccco3)N12 (stereo not given)	–	–	inactive
O=C([O-])c1ccc2c(c1)-c1nc-2nc2[n-]c(nc3nc(nc4[n-]c(n1)c1ccc(C(=O)[O-])cc41)-c1ccc(C(=O)[O-])cc1-3)c1ccc(C(=O)[O-])cc21.[Gd+3].[K+]	> 45.7	> 45.7	–
Cc1cnc2cc(Cl)ccc2c1NCCN(CC(C)C)CC(C)C	> 1	> 1	–
C#CC1(O)CCC2C3CCc4cc(Oc5nc(F)nc(-c6c7ccccc7c7sc8ccccc8n67)n5)ccc4C3CC[C@@]21C (stereo not given in full)	> 200	115	–
Cc1cc2c(cc1C)n1c(N(C)C)[n+]3ccccc3c1c1c3cccc[n+]3c(N(C)C)n21	> 151	21.9	–
c1cc(CSSCc2ccncc2)ccn1	> 200	0.891	–
CCOC(=O)c1[nH]n(-c2ccccc2)c(=O)c1/C=N/C(=S)Nc1ccccc1OC	> 200	93.3	–
O=C(/C=C/c1ccccc1)/C=C/c1ccccc1O	> 145	61.7	–
CCCCCCCCCCCCCCCCOCC(COC1OC(CO)C(O)C(O)C1O)OCCCCCCCCCCCCCCCC (stereo not given)	> 19.5	–	–
O=S(=O)(c1ccccc1)C(Br)c1ccccc1 (stereo not given)	> 158	> 158	–
CCO[C@@H]1N(C2CC(N=[N+]=[N-])C(CO)O2)C(=O)NC(=O)[C@@]1(C)Cl (stereo not given in full)	> 200	> 200	–
Cc1cn(C2CC(COCc3ccccc3)N(CCO[Si](C)(C)C(C)(C)C)O2)c(=O)[nH]c1=O (stereo not given)	> 200	11.5	–
Nc1ccc(C(=O)Oc2ccccc2)c(O)c1	> 200	> 200	–
O=C(c1c(F)c(F)c(F)c(F)c1F)n1c(=O)[nH]c2ccccc21	> 200	10.7	–
CN(C)CCCC12CCCCC1=Nc1ccccc12 (stereo not given)	> 200	7.76	–
O=C(/C=C/c1ccc(OCc2ccccc2)c(OCc2ccccc2)c1)OCc1ccccc1	> 200	> 200	–
CC(C)/C(Cl)=N\OC(=O)Nc1ccc(C#N)cc1	> 200	4.27	–
C[N+]1(CCC(C(N)=O)(c2ccccc2)c2ccccc2)CCCC12CCCCC2 (stereo not given)	–	–	inactive
Cc1cc(C)n2nc3c4ccsc4ncc3c2n1	> 45.7	> 45.7	–
O=C1ONN(c2ccccc2)/C1=C/N=Nc1ncnc2nc[nH]c12	162	> 200	–
O=c1[nH]c2nc3ccccc3c(=O)n2/c1=C/c1ccc(Cl)cc1	> 200	11.2	–
N#CCCCCCOCCOCCOCCOCCOCCCCCC#N	–	–	inactive

SMILES	EC50 [µM]	IC50 [µM]	outcome
CCOP(=O)(OCC)C(Cc1ccc(OC)cc1)NC(=O)C(CC(C)C)NC(=O)OCc1ccccc1 (stereo not given)	> 126	8.91	–
Cc1sc2c(c1C)c(=O)[nH]c1c(C#N)c(-c3ccc(Cl)cc3)cn12	186	> 200	–
CC(=O)SSC12CC3CC(CC(C3)C1)C2	> 200	> 200	–
CN(C)CC/C=C1\c2ccccc2CN(C)c2ccccc21	> 200	33.1	–
O=C(OC1CCC2OOC1O2)c1ccc([N+](=O)[O-])cc1 (stereo not given)	–	–	inactive
CC(/C=N/N(C)C1=NCCCCN1)=N/N(C)C1=NCCCCN1	> 200	> 200	–
CC(=O)OC(/C=C/c1ccccc1)=C(OC(C)C)/C1=C(\c2ccccc2)SCCCSC1=O	> 200	> 200	–
C1=CC2CCC1C1CN(CCCN3CCOCC3)CC21 (stereo not given)	> 708	> 708	–
Cc1ccc(C(=O)N(Cc2ccccc2)Cc2ccccc2)cc1N=NN(C)C	> 9.77	> 9.77	–
O=C(O)/C=C/C=C/C(=O)O	> 200	> 200	–
COC(C(=O)NCCCCNC(=O)C(OC)c1ccccc1)c1ccccc1 (stereo not given)	–	–	inactive
CC(=O)C(C(c1ccccc1)N1CCCc2ccccc21)N1CCOCC1 (stereo not given)	> 200	61.7	–
[N-]=[N+]=Nc1ncnc2c1sc(=S)n2-c1ccccc1	> 91.2	> 91.2	–
CC(=O)Nc1sc(Br)cc1S(=O)(=O)c1ccc(Cl)cc1	> 200	31.6	–
Clc1ccc2c(NCCCCCCNc3ccnc4cc(Cl)ccc34)ccnc2c1	> 14.1	2.4	–
CC(=O)[C@H]1[C@@H](OCc2ccccc2)O[N+]([O-])=C(C)[C@@H]1c1ccccc1	> 123	89.1	–
CNc1nnnn1C1OC(CO)C(O)C1O (stereo not given)	> 1070	> 1070	–
N#CCN1c2ccccc2CCC1Cl (stereo not given)	> 200	> 200	–
O=C(N/C(=C\c1ccc(/C=C(\NC(=O)c2ccccc2)c2nc3cc([N+](=O)[O-])ccc3[nH]2)cc1)c1nc2cc([N+](=O)[O-])ccc2[nH]1)c1ccccc1	–	–	inactive
CCCCn1c(=O)c(N=O)c(N)n(CC)c1=O	> 200	174	–
